In general, inhibition refers to the relative decrease from the control value, in per cent. In general, IC50 refers to the point on the concentration scale where inhibition reaches its midpoint. Low readings indicate higher potency, high ones lower potency. As a reminder, the Kd is the constant that tells how readily two partners part at equilibrium. Higher therefore signals weaker binding.

The source made the active and inactive calls. No cut-off for these calls is given here.

Results on 1 compound are retold here after ChEMBL document CHEMBL4393671, “Design of a Cyclin G Associated Kinase (GAK)/Epidermal Growth Factor Receptor (EGFR) Inhibitor Set to Interrogate the Relationship of EGFR and GAK in Chordoma” (J Med Chem, 2019).

In data set [1] the target is T1, Epidermal growth factor receptor (Homo sapiens, UniProt P00533). As to the kind of experiment: Inhibition of EGFR in human UCH1 cells assessed as reduction in EGF-induced EGFR phosphorylation at Y1068 residue at 10 uM preincubated for 4 hrs followed by EGF--stimulation and measured after 15 mins by Western blot analysis relative to control. Format: cell-based. A general note: A western blot detects proteins with antibodies after separation by electrophoresis.

Data set [2] in a line: cells. Type of data set: functional, cell-based. To be noted: Homo sapiens, UCH1, 72 h.
Description: Antiproliferative activity against human UCH1 cells measured after 72 hrs by alamar blue assay
A short description of data set [3]: cells. Type of data set: functional, cell-based. Conditions: Homo sapiens, UCH2, 72 h.
Description: Antiproliferative activity against human UCH2 cells measured after 72 hrs by alamar blue assay
In data set [4] the target is T1, Epidermal growth factor receptor.
Description: Binding affinity to wild-type human partial length EGFR (R669 to V1011 residues) expressed in bacterial expression system by Kinomescan method
Data set [5] has the same target. Type of data set: cell-based.
Description: Inhibition of EGFR in human A431 cells assessed as reduction in EGF-stimulated EGFR autophosphorylation preincuabted for 90 mins followed by EGF-stimulation by sandwich-ELISA
Data set [6] can be described thus: cells. Format: ADME, cell-based. Conditions: Homo sapiens, WS1, 72 h.
Description: Cytotoxicity against human WS1 cells measured after 72 hrs by alamar blue assay
Data set [7] in a line: cells. Format: functional, cell-based. To be noted: Homo sapiens, 72 h.
Description: Antiproliferative activity against human UCH7 cells measured after 72 hrs by alamar blue assay
Data set [8] is described as follows: cells. Format: functional, cell-based. To be noted: Homo sapiens, 72 h. The source holds these as a separate data set.
Description: Antiproliferative activity against human UMCHOR1 cells measured after 72 hrs by alamar blue assay
The nature of data set [9]: cells. Format: functional, cell-based. Conditions: Homo sapiens, 72 h. The source holds these as a separate data set.
Description: Antiproliferative activity against human CH22 cells measured after 72 hrs by alamar blue assay
A short description of data set [10]: cells. Format: functional, cell-based. Conditions: Homo sapiens, 72 h. This is another data set of the same source.
Description: Antiproliferative activity against human UCH12 cells measured after 72 hrs by alamar blue assay
Data set [11] can be described thus: cells. Conditions: Homo sapiens, 72 h. Format: functional, cell-based. The source holds these as a separate data set.
Description: Antiproliferative activity against human UCH14 cells measured after 72 hrs by alamar blue assay
The nature of data set [12]: Effect on total EGFR expression in human UCH1 cells at 1 to 10 uM measured after 4 hrs by Western blot analysis. Format: ADME, cell-based.
Data set [13] can be described thus: Effect on total EGFR expression in human UCH2 cells at 1 to 10 uM measured after 4 hrs by Western blot analysis. Format: ADME, cell-based.
Data set [14] has as its target T1, Epidermal growth factor receptor. As to the kind of experiment: Inhibition of EGFR in human UCH1 cells assessed as reduction in EGF-induced EGFR phosphorylation at Y1068 residue at 1 uM preincubated for 4 hrs followed by EGF--stimulation and measured after 15 mins by Western blot analysis relative to control. Format: cell-based.
Data set [15] has as its target Receptor-interacting serine/threonine-protein kinase 2 (Homo sapiens) (UniProt O43353). Kind of data set: Binding affinity to RIPK2 in human SUM159 cell lysates by multiplexed inhibitor bead profiling-based LC-MS/MS analysis. Type of data set: subcellular. To be noted: Lysate.
In data set [16] the target is T2, Serine/threonine-protein kinase Nek1 (Homo sapiens) (UniProt Q96PY6).
T2 sequence (whole entry): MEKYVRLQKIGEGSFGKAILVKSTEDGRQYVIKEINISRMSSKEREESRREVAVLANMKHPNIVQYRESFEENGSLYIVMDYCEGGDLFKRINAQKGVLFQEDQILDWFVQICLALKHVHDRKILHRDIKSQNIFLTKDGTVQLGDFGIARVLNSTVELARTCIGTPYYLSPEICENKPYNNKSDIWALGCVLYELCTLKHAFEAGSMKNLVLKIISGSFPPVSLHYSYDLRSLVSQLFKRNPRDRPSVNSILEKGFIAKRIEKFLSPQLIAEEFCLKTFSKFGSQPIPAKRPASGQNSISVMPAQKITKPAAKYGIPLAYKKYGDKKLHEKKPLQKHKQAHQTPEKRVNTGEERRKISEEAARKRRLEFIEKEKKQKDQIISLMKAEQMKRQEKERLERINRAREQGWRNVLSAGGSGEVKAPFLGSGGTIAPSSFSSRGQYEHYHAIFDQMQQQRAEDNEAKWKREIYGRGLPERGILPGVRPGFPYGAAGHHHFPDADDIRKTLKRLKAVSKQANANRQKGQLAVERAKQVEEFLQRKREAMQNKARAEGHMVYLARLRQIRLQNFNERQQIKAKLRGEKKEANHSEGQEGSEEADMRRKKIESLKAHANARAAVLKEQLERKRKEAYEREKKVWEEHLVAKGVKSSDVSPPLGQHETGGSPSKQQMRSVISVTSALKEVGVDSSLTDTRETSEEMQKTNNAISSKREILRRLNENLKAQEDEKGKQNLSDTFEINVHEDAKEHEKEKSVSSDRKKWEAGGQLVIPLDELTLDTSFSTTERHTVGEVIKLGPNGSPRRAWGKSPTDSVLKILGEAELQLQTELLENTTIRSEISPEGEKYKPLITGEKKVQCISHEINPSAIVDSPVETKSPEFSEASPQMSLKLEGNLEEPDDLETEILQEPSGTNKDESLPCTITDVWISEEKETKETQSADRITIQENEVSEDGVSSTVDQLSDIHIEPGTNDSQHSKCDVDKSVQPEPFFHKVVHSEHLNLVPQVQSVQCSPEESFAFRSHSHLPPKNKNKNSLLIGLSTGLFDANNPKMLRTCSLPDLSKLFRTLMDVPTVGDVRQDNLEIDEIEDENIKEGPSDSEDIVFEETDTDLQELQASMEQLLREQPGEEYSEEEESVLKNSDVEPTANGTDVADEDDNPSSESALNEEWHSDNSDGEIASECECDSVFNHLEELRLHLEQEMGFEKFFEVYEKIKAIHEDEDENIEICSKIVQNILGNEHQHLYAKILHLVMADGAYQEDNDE
Kind of data set: Binding affinity to NEK1 in human SUM159 cell lysates by multiplexed inhibitor bead profiling-based LC-MS/MS analysis. Type of data set: subcellular. To be noted: Lysate.
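Throughout, for Kd: KINOMEscan competition binding with recombinant partial wild-type human EGFR (residues R669–V1011) produced in bacteria.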

T1 sequence (P00533 whole entry): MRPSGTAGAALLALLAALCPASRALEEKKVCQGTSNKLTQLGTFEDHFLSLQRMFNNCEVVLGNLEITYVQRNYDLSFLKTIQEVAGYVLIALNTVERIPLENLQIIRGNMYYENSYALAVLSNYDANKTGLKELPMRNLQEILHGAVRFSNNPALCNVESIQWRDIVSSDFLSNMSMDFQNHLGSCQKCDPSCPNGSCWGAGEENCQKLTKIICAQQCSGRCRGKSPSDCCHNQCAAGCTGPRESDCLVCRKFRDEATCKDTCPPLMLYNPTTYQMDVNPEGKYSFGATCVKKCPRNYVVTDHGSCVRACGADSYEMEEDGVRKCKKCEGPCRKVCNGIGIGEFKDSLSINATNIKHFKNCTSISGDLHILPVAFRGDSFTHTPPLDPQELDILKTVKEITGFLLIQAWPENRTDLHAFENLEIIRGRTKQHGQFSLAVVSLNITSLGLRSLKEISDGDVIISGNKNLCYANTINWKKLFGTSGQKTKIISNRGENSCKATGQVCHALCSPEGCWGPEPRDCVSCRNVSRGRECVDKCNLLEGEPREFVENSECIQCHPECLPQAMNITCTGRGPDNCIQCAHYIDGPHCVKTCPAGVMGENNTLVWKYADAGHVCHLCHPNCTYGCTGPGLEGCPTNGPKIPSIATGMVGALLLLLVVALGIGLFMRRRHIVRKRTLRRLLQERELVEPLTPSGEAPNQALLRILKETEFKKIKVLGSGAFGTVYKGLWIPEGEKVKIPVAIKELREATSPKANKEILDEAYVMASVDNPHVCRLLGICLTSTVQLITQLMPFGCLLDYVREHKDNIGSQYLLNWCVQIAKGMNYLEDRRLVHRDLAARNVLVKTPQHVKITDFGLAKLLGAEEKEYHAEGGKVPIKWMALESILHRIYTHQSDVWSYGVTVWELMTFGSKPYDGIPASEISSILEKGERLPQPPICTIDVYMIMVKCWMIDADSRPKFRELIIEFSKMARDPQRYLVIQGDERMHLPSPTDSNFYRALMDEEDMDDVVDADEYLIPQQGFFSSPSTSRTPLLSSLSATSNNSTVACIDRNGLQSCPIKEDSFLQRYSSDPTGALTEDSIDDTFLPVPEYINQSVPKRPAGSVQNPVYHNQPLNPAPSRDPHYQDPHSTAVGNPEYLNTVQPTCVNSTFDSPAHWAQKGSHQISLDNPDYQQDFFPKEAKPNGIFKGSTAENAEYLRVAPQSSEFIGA
Sequence of Receptor-interacting serine/threonine-protein kinase 2 (Homo sapiens) (O43353 whole entry): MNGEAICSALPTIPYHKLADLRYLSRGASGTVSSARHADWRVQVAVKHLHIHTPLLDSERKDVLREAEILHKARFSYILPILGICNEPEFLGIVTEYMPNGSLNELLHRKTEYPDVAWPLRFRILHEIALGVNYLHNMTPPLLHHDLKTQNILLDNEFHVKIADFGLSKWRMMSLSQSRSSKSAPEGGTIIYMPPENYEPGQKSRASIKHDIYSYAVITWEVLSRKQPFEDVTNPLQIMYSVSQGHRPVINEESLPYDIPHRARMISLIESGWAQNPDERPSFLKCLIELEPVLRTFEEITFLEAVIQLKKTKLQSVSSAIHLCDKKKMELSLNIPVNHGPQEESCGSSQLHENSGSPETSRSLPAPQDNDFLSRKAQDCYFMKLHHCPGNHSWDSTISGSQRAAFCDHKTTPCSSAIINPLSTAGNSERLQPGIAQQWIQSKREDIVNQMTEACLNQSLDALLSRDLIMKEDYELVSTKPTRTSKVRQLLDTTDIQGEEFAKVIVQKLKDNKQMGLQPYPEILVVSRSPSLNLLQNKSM

Take `C#Cc1cccc(Nc2ccnc3cc(OC)c(OC)cc23)c1`: the values for the inhibition in data set [1] and in data set [14] were 60.8% and 0%, respectively. For the same compound, the IC50 is 2.1 µM in the data set “cells [2]”; > 50 µM in “cells [3]”; 0.042 µM in data set [5]; 7.7 µM in “cells [6]”; 20 µM in “cells [7]”; 14 µM in “cells [8]”. For the same compound, the IC50 in “cells [9]” was found to be 13 µM; in the data set “cells [10]”, 30 µM; in “cells [11]”, 13 µM. Further, in [4], binding was characterised by a dissociation constant (Kd) of 0.00027 µM. Besides, the Activity entry in data set [12] and in data set [13] was “Non-Toxic” throughout. The outcome in data set [15] and in [16] was Active.
